Reference: patent US20100249132A1, “IMIDAZOLE DERIVATIVES” (MERCK PATENT GESELLSCHAFT MIT BESCHRANKTER HAFTUNG, priority 2007, published 2010)

These molecules were tested against T1, recombinant autotaxin (Homo sapiens, UniProt Q13822) (assay: Autotaxin test (enzyme test), Amplex Red fluorescence). Conditions: substrate LPC 75 μM, Amplex Red detection, read-out: IC50 (autotaxin inhibition, enzyme test).
T1 construct: made in house; host or cells: Hi5 insect cells (baculovirus)
Assay type: biochemical
Description: Autotaxin Inhibition (Enzyme Test)
Autotaxin Test (Enzyme Test)
The autotaxin activity is measured indirectly using Amplex Red reagent. Amplex Red is measured here as fluorogenic indicator for the H2O2 formed. In detail, autotaxin converts the substrate lysophosphatidylcholine (LPC) into phosphocholine and lysophosphatidylic acid (LPA). After this reaction, the phosphocholine is reacted with alkaline phosphatase to give inorganic phosphate and choline. In the next step, choline is oxidised by choline oxidase to give betaine, with formation of H2O2. H2O2 reacts with Amplex Red reagent in the presence of peroxidase (horseradish peroxidase) in a 1:1 stoichiometry and forms the highly fluorescent resorufin. The fluorescence is measured in a reaction-dependent kinetic mode in order that fluorescent signals from possible other fluorescent substances which are not involved in the reaction can be corrected out.
1.5 μl of a standard solution or of the test substances (substances with the name A(n)) in individual concentrations dissolved in 20 mM Hepes pH 7.2 with a maximum of 7.7% of DMSO are pre-incubated together with 10 μl (16 ng) of highly purified recombinant autotaxin in a black microtitre plate provided with 384 wells at 22° C. for 30 min. The reaction is then initiated by addition of 5 μl of L-α-lysophosphatidylcholine (LPC), where the final concentration of LPC is 75 μM. The mixture is incubated at 37° C. for 90 min. After the incubation, Amplex Red reagent, peroxidase (horseradish peroxidase) and choline oxidase is added, and the fluorescence is immediately measured at 612 nm with excitation of 485 nm in a “Tecan Ultra multimode” reader. The activity of autotaxin is calculated indirectly via detection of the H2O2 formed. • Material: • Microtitre plate: PS microplate, 384 wells, small volume, black Corning, Cat #3677 • Protein: recombinant autotaxin (Baculovirale Hi5 Expression) • Substrate: L-α-lysophosphatidylcholine (chicken egg)); Avanti Polar Lipids #830071 P • Standard: C14 LPA, Avanti Polar Lipids, Cat #857120P • Detection reagent: Amplex Red reagent; Invitrogen #A12222; dissolved in 1.923 ml of DMSO peroxidase type VI-A (horseradish) from Sigma #P6782; dissolved in 7.45 ml of test buffer, choline oxidase; Sigma #C5896; dissolved in 2.47 ml of test buffer • Detection reagent mix: 1:100 dilution of Amplex Red reagent in test buffer • Test buffer: 200 mM Tris HCl, Merck, Cat #1.08219, pH 7.9, 0.1% of BSA, lipid-free, Roche Cat #775835
Molecule `NC(=O)c1nc(-c2ccc(OCC(=O)O)cc2)[nH]c1NC(=O)Nc1cc(C(F)(F)F)ccc1F` [Compound A55, (4-{4-Carbamoyl-5-[3-(2-fluoro-5-trifluoromethyl-phenyl)ureido]-1H-imidazol-2-yl}phenoxy)acetic acid] has an IC50 of 1 to 10 µM. With `Cc1cc(C)c(NC(=O)Nc2[nH]c(Cc3ccc(C(=O)O)o3)nc2C(N)=O)c(C)c1` [Compound A31, 5-{4-Carbamoyl-5-[3-(2,4,6-trimethylphenyl)-ureido]-1H-imidazol-2-ylmethyl}furan-2-carboxylic acid] the IC50 was 1 to 10 µM. With `Cc1cccc(C)c1NC(=O)Nc1[nH]c(-c2ccc(OCC(=O)O)cc2)nc1C(N)=O` [Compound A48, (4-{4-Carbamoyl-5-[3-(2,6-dimethylphenyl)-ureido]-1H-imidazol-2-yl}phenoxy)acetic acid] the IC50 was over 10 µM. Work on `CCCCc1ccc(NC(=O)Nc2[nH]c(Cc3ccc(C(=O)N4C[C@@H](C)O[C@@H](C)C4)o3)nc2C(N)=O)cc1` [Compound A82, 5-[3-(4-Butylphenyl)ureido]-2-[5-((5R,6S)-2,6-dimethylmorpholine-4-carbonyl)furan-2-yl-methyl]-1H-imidazole-4-carboxamide] yielded an IC50 of over 10 µM. With `CCCCc1ccc(NC(=O)Nc2[nH]c(Cc3ccc(C(=O)N4CCCC4)o3)nc2C(N)=O)cc1` [Compound A81, 5-[3-(4-Butylphenyl)ureido]-2-[5-(pyrrolidine-1-carbonyl)furan-2-ylmethyl]-1H-imidazole-4-carboxamide] the IC50 was over 10 µM. Molecule `NC(=O)c1nc(Cc2ccc(C(=O)O)cc2)[nH]c1NC(=O)Nc1cccs1` [Compound A102, 4-[4-Carbamoyl-5-(3-thiophen-2-ylureido)-1H-imidazol-2-ylmethyl]benzoic acid] has an IC50 of 1 to 10 µM. `NC(=O)c1nc(COc2ccc(CC(=O)O)cc2)[nH]c1NC(=O)Nc1ccc(Cl)cc1` [Compound A59, (4-{4-Carbamoyl-5-[3-(4-chlorophenyl)ureido]-1H-imidazol-2-ylmethoxy}phenyl)acetic acid] gave an IC50 of over 10 µM. `NC(=O)c1nc(Cc2ccc(C(=O)O)cc2)[nH]c1NC(=O)Nc1ccc(OC(F)(F)F)cc1` [Compound A93, 4-{4-Carbamoyl-5-[3-(4-trifluoromethoxyphenyl)-ureido]-1H-imidazol-2-ylmethyl}benzoic acid] showed an IC50 of 1 to 10 µM. Work on `COC(=O)c1ccc(Cc2nc(C(N)=O)c(NC(=O)Nc3ccc(C(F)(F)F)cc3)[nH]2)cc1` [Compound A98, Methyl 4-{4-carbamoyl-5-[3-(4-trifluoromethyl-phenyl)ureido]-1H-imidazol-2-ylmethyl}benzoate] yielded an IC50 of over 10 µM. Molecule `NC(=O)c1nc(-c2ccc(C(=O)O)cc2)[nH]c1NC(=O)Nc1ccc(C(F)(F)F)cc1` [Compound A18, 4-{4-Carbamoyl-5-[3-(4-trifluoromethylphenyl)-ureido]-1H-imidazol-2-yl}benzoic acid] has an IC50 of over 10 µM. `Cc1ccc(NC(=O)Nc2[nH]c(Cc3ccc(C(=O)O)s3)nc2C(N)=O)c(C)c1` [Compound A71, 5-{4-Carbamoyl-5-[3-(2,4-dimethylphenyl)-ureido]-1H-imidazol-2-ylmethyl}thiophene-2-carboxylic acid] showed an IC50 of 1 to 10 µM. Molecule `Cc1ccc(NC(=O)Nc2[nH]c(COc3ccc(CC(=O)O)cc3)nc2C(N)=O)cc1` [Compound A58, {4-[4-Carbamoyl-5-(3-p-tolylureido)-1H-imidazol 2-ylmethoxy]phenyl}acetic acid] has an IC50 of over 10 µM. Work on `NC(=O)c1nc(Cc2ccc(OCC(=O)O)cc2)[nH]c1NC(=O)Nc1cccc(C(F)(F)F)c1` [Compound A37, (4-{4-Carbamoyl-5-[3-(3-trifluoromethylphenyl)-ureido]-1H-imidazol-2-ylmethyl}phenoxy)acetic acid] yielded an IC50 of over 10 µM. With `CCc1ccc(NC(=O)Nc2[nH]c(-c3ccc(OCC(=O)O)cc3)nc2C(N)=O)cc1` [Compound A54, (4-{4-Carbamoyl-5-[3-(4-ethylphenyl)ureido]-1H-imidazol-2-yl}phenoxy)acetic acid] the IC50 was 1 to 10 µM. Molecule `NC(=O)c1nc(CCC(=O)Nc2ccc3[nH]nnc3c2)[nH]c1NC(=O)Nc1ccc(Cl)cc1` [Compound B80] has an IC50 of over 10 µM. Work on `CCCCCc1ccc(NC(=O)Nc2[nH]c(Cc3ccc(OCC(=O)O)cc3)nc2C(N)=O)cc1` [Compound A43, (4-{4-Carbamoyl-5-[3-(4-pentylphenyl)ureido]-1 H-imidazol-2-ylmethyl}phenoxy)acetic acid] yielded an IC50 of 1 to 10 µM. With `Cc1ccc(NC(=O)Nc2[nH]c(Cc3ccc(OCC(=O)O)cc3)nc2C(N)=O)cc1` [Compound A40, {4-[4-Carbamoyl-5-(3-p-tolylureido)-1H-imidazol 2-ylmethyl]phenoxy}acetic acid] the IC50 was 1 to 10 µM. Molecule `CC(C)c1ccc(NC(=O)Nc2[nH]c(-c3ccc(OCC(=O)O)cc3)nc2C(N)=O)cc1` [Compound A51, (4-{4-Carbamoyl-5-[3-(4-isopropylphenyl)ureido]-1H-imidazol-2-yl}phenoxy)acetic acid] has an IC50 of 1 to 10 µM. In the case of `Cc1cc(C)cc(NC(=O)Nc2[nH]c(-c3ccc(CC(=O)O)cc3)nc2C(N)=O)c1` [Compound A25, (4-{4-Carbamoyl-5-[3-(3,5-dimethylphenyl)-ureido]-1H-imidazol-2-yl}phenyl)acetic acid], the IC50 is reported as over 10 µM. `NC(=O)c1nc(-c2ccc(OCC(=O)O)cc2)[nH]c1NC(=O)Nc1ccc(F)cc1` [Compound A46, (4-{4-Carbamoyl-5-[3-(4-fluorophenyl)ureido]-1H-imidazol-2-yl}phenoxy)acetic acid] gave an IC50 of over 10 µM. For `CC(C)c1ccc(NC(=O)Nc2[nH]c(Cc3ccc(C(=O)O)cc3)nc2C(N)=O)cc1` [Compound A2, 4-{4-Carbamoyl-5-[3-(4-isopropylphenyl)ureido]-1H-imidazol-2-ylmethyl}benzoic acid], the IC50 was 1 to 10 µM. Molecule `NC(=O)c1nc(Cc2ccc(OCC(=O)O)cc2)[nH]c1NC(=O)Nc1ccc(C(F)(F)F)cc1` [Compound A38, (4-{4-Carbamoyl-5-[3-(4-trifluoromethylphenyl)-ureido]-1H-imidazol-2-ylmethyl}phenoxy)acetic acid] has an IC50 of 1 to 10 µM. `NC(=O)c1nc(-c2ccc(OCC(=O)O)cc2)[nH]c1NC(=O)Nc1ccc(C(F)(F)F)cc1` [Compound A50, (4-{4-Carbamoyl-5-[3-(4-trifluoromethylphenyl)-ureido]-1H-imidazol-2-yl}phenoxy)acetic acid] gave an IC50 of 1 to 10 µM. `CCc1ccc(NC(=O)Nc2[nH]c(Cc3ccc(C(=O)O)s3)nc2C(N)=O)cc1` [Compound A72, 5-{4-Carbamoyl-5-[3-(4-ethylphenyl)ureido]-1H-imidazol-2-ylmethyl}thiophene-2-carboxylic acid] gave an IC50 of 1 to 10 µM. `CCCCc1ccc(NC(=O)Nc2[nH]c(Cc3ccc(C(=O)N4CCOCC4)o3)nc2C(N)=O)cc1` [Compound A83, 5-[3-(4-Butylphenyl)ureido]-2-[5-(morpholine-4-carbonyl)furan-2-ylmethyl]-1H-imidazole-4-carboxamide] showed an IC50 of over 10 µM. Molecule `NC(=O)c1nc(Cc2ccc(C(=O)O)s2)[nH]c1NC(=O)Nc1cccc(C(F)(F)F)c1` [Compound A65, 5-{4-Carbamoyl-5-[3-(3-trifluoromethylphenyl)-ureido]-1H-imidazol-2-ylmethyl}thiophene-2-carboxylic acid] has an IC50 of over 10 µM. Work on `CC(C)(CCc1nc(C(N)=O)c(NC(=O)Nc2ccc(Cl)cc2)[nH]1)C(=O)O` [Compound B75] yielded an IC50 of over 10 µM. For `CCCCc1ccc(NC(=O)Nc2[nH]c(Cc3ccc(C(=O)N(CC)CC)o3)nc2C(N)=O)cc1` [Compound A78, 5-[3-(4-Butylphenyl)ureido]-2-(5-diethyl-carbamoylfuran-2-ylmethyl)-1H-imidazole-4-carboxamide], the IC50 was over 10 µM. `CCCCOc1ccc(NC(=O)Nc2[nH]c(Cc3ccc(O)cc3)nc2C(N)=O)cc1` [Compound A95, 5-[3-(4-Butoxyphenyl)ureido]-2-(4-hydroxy-benzyl)-1H-imidazole-4-carboxamides] gave an IC50 of over 10 µM. `CCCCc1ccc(NC(=O)Nc2[nH]c(-c3ccc(OCC(=O)O)cc3)nc2C(N)=O)cc1` [Compound A52, (4-{5-[3-(4-Butylphenyl)ureido]-4-carbamoyl-1H-imidazol-2-yl}phenoxy)acetic acid] showed an IC50 of over 10 µM. `NC(=O)c1nc(Cc2ccc(OCC(=O)O)cc2)[nH]c1NC(=O)Nc1ccc(Oc2ccccc2)cc1` [Compound A45, (4-{4-Carbamoyl-5-[3-(4-phenoxyphenyl)ureido]-1H-imidazol-2-ylmethyl}phenoxy)acetic acid] was tested, and the IC50 was over 10 µM. `CCCCc1ccc(NC(=O)Nc2[nH]c(Cc3ccc(C(=O)N(C)CCCC)o3)nc2C(N)=O)cc1` [Compound A79, 2-[5-(Butylmethylcarbamoyl)furan-2-ylmethyl]-5-[3-(4-butylphenyl)ureido]-1H-imidazole-4-carboxamide] gave an IC50 of over 10 µM.
